This passage reports TGI and GI50 results from PubChem BioAssay (NCI).

Test systems include MDA-MB-231 breast; RXF 393 renal; IGROV1 ovarian; BT-549 breast; CAKI-1 renal; SF-268 CNS; 786-0 renal; SNB-75 CNS; EKVX NSCLC; SF-539 CNS.
What all share (test): NCI anticancer screen, dose series, 48 h

The structures appear in SMILES notation. Values joined by “and” are separate entries in the source; they are usually repeats but may differ in a detail not shown here. Identical values can stand only once.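 How tested: cells in 96-well plates exposed to compound for 48 hours at five concentrations. Here, GI50 denotes the concentration required for 50% inhibition of growth. The concentration for full growth arrest is given as TGI.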

On to `O=c1[nH]c(SCc2c(Cl)c(Cl)c(Cl)c(Cl)c2Cl)nc(=S)[nH]1`, for which the TGI is above 100 µM with MDA-MB-231 breast; 35.5 µM with RXF 393 renal; above 100 µM in the assay with IGROV1 ovarian; above 100 µM in the assay on BT-549 breast; above 100 µM in the assay on CAKI-1 renal; above 100 µM with SF-268 CNS. The TGI with 786-0 renal, in the assay with SNB-75 CNS, in the assay with EKVX NSCLC and in the assay on SF-539 CNS was above 100 µM each time.
`CC1(C)CC2C=C(C=O)C3(C=O)CC3(C)C2C1` (centres undefined): the TGI is 3.87 µM in the assay on MDA-MB-231 breast; 3.41 µM in the assay with RXF 393 renal; 4.68 µM in the assay with IGROV1 ovarian; 3.37 µM with BT-549 breast; 4.26 µM in the assay on CAKI-1 renal; 6.02 µM in the assay with SF-268 CNS. Moreover, the TGI in the assay on 786-0 renal came out at 3.13 µM; in the assay on SNB-75 CNS, 7.56 µM; in the assay on EKVX NSCLC, 7.5 µM; in the assay with SF-539 CNS, 3.51 µM.
In the case of `O=C(O)CCCCn1cnc2c(=S)nc[nH]c21`, the TGI in the assay with MDA-MB-231 breast, with RXF 393 renal, in the assay on IGROV1 ovarian, with BT-549 breast, in the assay with CAKI-1 renal and with SF-268 CNS was above 100 µM each time. Further, the TGI in the assay with 786-0 renal, in the assay on SNB-75 CNS, in the assay on EKVX NSCLC and in the assay with SF-539 CNS was above 100 µM each time.
As to `C#CCNC(=O)CC[C@]1(C)[C@H]2CC[C@@H]3[C@@H]([C@@](C)(O)CCC=C(C)C)CC[C@@]3(C)[C@]2(C)CC[C@H]1C(=C)C`, the GI50 with MDA-MB-231 breast was 22.3 µM; in the assay with RXF 393 renal, 26.2 µM; with IGROV1 ovarian, 10.2 µM; in the assay with BT-549 breast, 29 µM; with CAKI-1 renal, 4.25 µM; in the assay on SF-268 CNS, 22 µM. For the same compound, the GI50 with 786-0 renal was 12.2 µM; in the assay on SNB-75 CNS, above 100 µM; in the assay on EKVX NSCLC, 47.9 µM; with SF-539 CNS, 17.2 µM. In addition, the TGI is 67.5 µM in the assay with MDA-MB-231 breast; 81.9 µM with RXF 393 renal; 25.4 µM with IGROV1 ovarian; above 100 µM in the assay with BT-549 breast; 17.7 µM in the assay with CAKI-1 renal; 57.1 µM with SF-268 CNS. In addition, the TGI in the assay on 786-0 renal was 30 µM; in the assay on SNB-75 CNS, above 100 µM; in the assay on EKVX NSCLC, above 100 µM; in the assay with SF-539 CNS, 31.1 µM.
Take `O=C1/C(=C/c2ccccc2)CCC/C1=C\c1ccccc1`: the GI50 in the assay with MDA-MB-231 breast is 18.5 µM; in the assay with RXF 393 renal, 7.73 µM and 4.27 µM; with IGROV1 ovarian it was 8.37 µM and 14.6 µM; in the assay with CAKI-1 renal, 7.03 µM and 17 µM; in the assay on SF-268 CNS it was 6.72 µM and 5.81 µM; in the assay with 786-0 renal, 6.62 µM. Besides, the GI50 with SNB-75 CNS is 6.22 µM; with EKVX NSCLC, 7.8 µM and 15.8 µM; in the assay on SF-539 CNS, 6.9 µM and 22.3 µM. For the same compound, the TGI in the assay with MDA-MB-231 breast is 11.6 µM and 68.1 µM; in the assay on RXF 393 renal it was 13.4 µM and 32.3 µM and 17.8 µM; in the assay with IGROV1 ovarian, 14.1 µM and 29.4 µM and > 100 µM; with BT-549 breast, 10.9 µM and 24 µM; with CAKI-1 renal, 13 µM and 46.4 µM and 44.7 µM; in the assay with SF-268 CNS, 13.3 µM and 29.5 µM and 20.3 µM. Also, the TGI in the assay with 786-0 renal is 11.9 µM and 25.9 µM and 27.1 µM; in the assay on SNB-75 CNS it was 13.2 µM and 51.2 µM and 52.1 µM; in the assay with EKVX NSCLC it was 14.8 µM and 38.2 µM and 39.1 µM; in the assay with SF-539 CNS, 12.2 µM and 32.7 µM and 53.4 µM.
As to `CC(=O)OC(C)(C)N=Nc1ccc(Br)cc1`, the TGI was above 100 µM with MDA-MB-231 breast; above 60.4 µM with RXF 393 renal; above 100 µM in the assay on IGROV1 ovarian; above 100 µM in the assay on BT-549 breast; 48.3 µM in the assay on CAKI-1 renal; above 100 µM with SF-268 CNS. Also, the TGI in the assay with 786-0 renal is above 100 µM; with SNB-75 CNS, above 91.5 µM; in the assay with EKVX NSCLC, above 100 µM; with SF-539 CNS, above 100 µM.
In the case of `CCOC(=O)C1=C(C)NC2SC(=O)/C(=C\c3ccccc3)N2C1c1ccccc1` (centres undefined), the GI50 in the assay on MDA-MB-231 breast, in the assay with RXF 393 renal, in the assay with IGROV1 ovarian, with BT-549 breast, in the assay with CAKI-1 renal and in the assay with SF-268 CNS was above 100 µM each time. Also, the GI50 in the assay with 786-0 renal, with SNB-75 CNS, with EKVX NSCLC and in the assay on SF-539 CNS was above 100 µM throughout. Further, the TGI with MDA-MB-231 breast, with RXF 393 renal, in the assay with IGROV1 ovarian, with BT-549 breast, in the assay on CAKI-1 renal and in the assay on SF-268 CNS was above 100 µM each time. The TGI with 786-0 renal, in the assay on SNB-75 CNS, in the assay on EKVX NSCLC and in the assay on SF-539 CNS was above 100 µM in each case.
As to `CCOC(=O)C(=O)N=Nc1nc2c(O)c3ccccc3c(O)c2s1`, the TGI in the assay with MDA-MB-231 breast is 12.7 µM; in the assay on RXF 393 renal it was 9.55 µM; with IGROV1 ovarian it was 14.6 µM; in the assay with BT-549 breast, 22.9 µM; with CAKI-1 renal it was 35.6 µM; in the assay with SF-268 CNS, 10.8 µM. In addition, the TGI was determined as 22.8 µM in the assay with 786-0 renal, 9.02 µM with SNB-75 CNS, 19.4 µM in the assay on EKVX NSCLC and 5.13 µM in the assay on SF-539 CNS.
